Key:
APOBEC3A (A3A) = APOBEC3A (A3A) (Homo sapiens, UniProt P31941); assay: fluorescence ssDNA C-to-U deaminase assay; assay type: biochemical
APOBEC3G (A3G) = APOBEC3G (A3G) (Homo sapiens, UniProt Q9HC16); assay: fluorescence ssDNA C-to-U deaminase assay; assay type: biochemical
Sequence of APOBEC3G (A3G) (Q9HC16 whole entry): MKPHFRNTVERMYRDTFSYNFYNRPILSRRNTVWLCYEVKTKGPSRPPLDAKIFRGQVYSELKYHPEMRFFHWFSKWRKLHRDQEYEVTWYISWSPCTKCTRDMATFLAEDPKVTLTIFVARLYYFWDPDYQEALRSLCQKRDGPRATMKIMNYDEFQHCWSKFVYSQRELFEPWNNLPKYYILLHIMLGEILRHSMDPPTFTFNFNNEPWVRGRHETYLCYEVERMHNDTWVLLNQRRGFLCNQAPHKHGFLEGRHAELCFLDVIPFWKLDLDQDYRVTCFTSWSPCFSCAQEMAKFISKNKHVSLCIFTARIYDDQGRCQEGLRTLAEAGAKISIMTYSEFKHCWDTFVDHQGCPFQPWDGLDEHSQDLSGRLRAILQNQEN

Sequence of APOBEC3A (A3A) (P31941 whole entry): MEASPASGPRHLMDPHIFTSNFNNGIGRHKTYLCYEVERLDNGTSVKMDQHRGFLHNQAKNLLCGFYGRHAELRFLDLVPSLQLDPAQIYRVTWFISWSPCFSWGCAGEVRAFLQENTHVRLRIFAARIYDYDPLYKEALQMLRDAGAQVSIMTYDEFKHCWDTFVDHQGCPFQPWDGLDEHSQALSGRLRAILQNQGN

SMILES	IC50 (APOBEC3A (A3A)) [µM]	IC50 (APOBEC3G (A3G)) [µM]
Cc1nnc(O)n1N [compound 7, 4-amino-5-methyl-1,2,4-triazol-3-ol]	> 100	–
S=c1[nH]ncn1N=Cc1ccc(Br)cc1 [compound 1, 4-((4-bromobenzylidene)amino)-1,2,4-triazole-3-thiol]	> 100	4.3 ± 1.1
Cc1nnc(S)n1N [compound 5, 4-amino-5-methyl-1,2,4-triazole-3-thiol]	> 100	6.1 ± 1.1
Nn1cnnc1S [compound 4, 4-amino-1,2,4-triazole-3-thiol]	> 100	> 100

Second part, the compound after the results:

IC50 (APOBEC3A (A3A)) [µM]	IC50 (APOBEC3G (A3G)) [µM]	SMILES
> 100	8.2 ± 1.2	Cc1nnc(S)n1NC(=O)c1ccccc1 [compound 9, N-(3-mercapto-5-methyl-1,2,4-triazol-4-yl)benzamide]
> 100	–	Cc1nnc(SCc2ccccc2)n1N [compound 11, 3-(benzylthio)-5-methyl-1,2,4-triazol-4-amine]
> 100	3.9 ± 1.2	COc1ccc(C=Nn2c(C)nnc2S)cc1 [compound 8, 4-((4-methoxybenzylidene)amino)-5-methyl-1,2,4-triazole-3-thiol]

— publication PMC3786134 (ChemMedChem, 2012)
